Laboratory results published in article PMC11930985 (Nature Communications, 2025).
Values joined by “and” are separate entries in the source; they are usually repeats but may differ in a detail not shown here. Equal values may be shown once. Read-outs that look alike come from different tables or passages of the source.

Tests used:
[1] = tested on: AML/MDS patients; assay: Kaplan-Meier OS, EFS, RFS; type: in vivo, human
Protocol: Response assessments (peripheral blood and BM) were performed at Cycle 2 Day 1 (pre-dose), Cycle 4 Day 1 (pre-dose) and repeated every 3 cycles thereafter or when clinically indicated. Patients who completed 12 months of study treatment and had not experienced progressive disease (PD) underwent response assessment every 5 cycles until PD was confirmed. Efficacy endpoints were: Objective response rate (ORR), defined as the number of patients with CR, CRi, MLFS, MR or PR divided by the total number of patients in the cohort/group; Disease control rate (DCR), defined as the number of patients with CR, CRi, MLFS, MR, PR or unchanged disease for at least three cycles (considered to have stable disease (SD)) divided by the total number of patients in the cohort/group; Overall survival (OS), defined as (date of death or censoring) – (date of the first study treatment) +1. Censoring date was the last date the patient was known to be alive; Event free survival (EFS), defined as (earliest of date of death, date of progression or date of censoring) – (date of the first study treatment) +1, with event defined as death or progression. Patients who started a new anti-cancer treatment before documented progression were censored at the date of the last assessment prior to start of non-protocol treatment. […] Patients who were alive without documented progression on the last day of contact were censored at the date of the last assessment.
Analyses were performed on response data, AEs, and PK parameters. Subgroup analysis by sex was not performed due to the small number of patients. Statistical analyses were performed using descriptive statistics. The time-to-event variables RFS, EFS, and OS were analyzed using Kaplan-Meier estimates, and median time-to-event was reported alongside its 95% confidence interval (CI). Where relevant, differences between different subgroups for time-to-event endpoints were assessed using a one-tailed log-rank test.

[2] = Bemcentinib plasma PK (LC-MS/MS, population PK model); type: in vivo, human; details: for Cmax / AUC / half-life: human, plasma, oral; for Cmax: read-out: mean Cmax at steady state
Protocol: Thereafter, a pre-dose sample was collected at all study visits ( > Cycle 3 up to and including Cycle 15) and at End of Study. PK samples were measured using a fully validated liquid chromatography with tandem mass spectrometry method for bemcentinib. […] The PopPK model was developed by evaluating various structural models including 1 compartment and 2 compartment models. Covariate analysis was performed using a forward addition and backward elimination procedure, from which a preliminary base model was selected. During covariate analysis, continuous covariates were centered on the median population values, and the most common or most relevant category was used as the reference value for categorical covariates. A visual predictive check (VPC) was conducted to verify that the final model adequately predicted both the central tendency and variability of the observed data across studies or by proton pump inhibitor use. Quantification of parameter uncertainty in the final model was assessed by nonparametric bootstrap analysis. Population PK analysis was performed using the nonlinear mixed effects modelling methodology as implemented in the NONMEM program Version 7.4.4[35]. Data postprocessing was performed using R (Version 3.6.1)[36]. Individual population PK model parameters were estimated using NONMEM with the following $ESTIMATION parameters: METHOD = COND INTERACTION […] = 0 […] = 3. These parameters were subsequently used to predict individual steady-state profiles with a dense PK sampling scheme using the SIMULATION method in NONMEM.

[3] = molecular target: Flt4; set-up: method as in Investigator's Brochure (IB) version 5.0; details: ref Investigator's Brochure (IB) version 5.0; cited from earlier work
[4] = tested on: Flt4; set-up: method as in Investigator's Brochure (IB) version 5.0; details: ref Investigator's Brochure (IB) version 5.0; cited from earlier work; remark: listed apart in the source
[5] = tested on: AML cell lines; set-up: method as in Investigator's Brochure (IB) version 5.0; details: ref Investigator's Brochure (IB) version 5.0, cited from earlier work
[6] = tested on: MD V 4-11 xenograft; set-up: method as in Investigator's Brochure (IB) version 5.0; details: ref Investigator's Brochure (IB) version 5.0, cited from earlier work
[7] = tested on: Hoxa9/Meis1 leukemia; set-up: method as in Ben-Batalla et al., 2013; details: ref Ben-Batalla et al., 2013; cited from earlier work
[8] = tested on: CYP3A4/5; set-up: method as in Investigator's Brochure (IB) version 5.0; details: ref Investigator's Brochure (IB) version 5.0; cited from earlier work
[9] = tested on: healthy male subjects; set-up: method as in Protocol BGBC001; details: ref Protocol BGBC001; cited from earlier work
[10] = tested on: bacterial mutation; details: ref Investigator's Brochure (IB) version 5.0; cited from earlier work

Structure (SMILES): Nc1nc(Nc2ccc3c(c2)CC[C@@H](N2CCCC2)CC3)nn1-c1cc2c(nn1)-c1ccccc1CCC2 [Bemcentinib]
- mEFS (95% CI) ([1]; DE 200/100 mg, N=4): 4.4 (0.5-NA) months
- mOS (95% CI) ([1]; DE 200/100 mg, N=4): 5.9 (4.4-NA) months
- mEFS (95% CI) ([1]; DE 400/100 mg, N=6): 5.3 (2.6-NA) months
- mOS (95% CI) ([1]; DE 400/100 mg, N=6): 19 (2.6-NA) months
- mEFS (95% CI) ([1]; DE 400/200 mg, N=7): 1.6 (0.7-NA) months
- mOS (95% CI) ([1]; DE 400/200 mg, N=7): 8.6 (0.8-NA) months
- mEFS (95% CI) ([1]; DE 600/200 mg, N=14): 1.2 (0.7-2.1) months
- mOS (95% CI) ([1]; DE 600/200 mg, N=14): 2.5 (1.1-NA) months
- mOS (95% CI) ([1]; DE 900/300 mg, N=5): 6.9 (NA-NA) months
- mEFS (95% CI) ([1]; DE overall, N=36): 2.1 (1.4-2.8) months
- mOS (95% CI) ([1]; DE overall, N=36): 5.3 (2.6-9.1) months
- mean Ctrough at steady state ([2]; DE cohort, maintenance 100 mg daily): 136 ± 109 ng/mL
- mean Ctrough at steady state ([2]; DE cohort, maintenance 300 mg daily): 382 ± 193 ng/mL
- bemcentinib concentration ([2]; Figure 4, individual patients, concentration paired with maximum pAXL(Y779) inhibition): 358 ng/mL and 79 ng/mL and 276 ng/mL and 103 ng/mL and 178 ng/mL and 74 ng/mL and 173 ng/mL and 0 ng/mL and 122 ng/mL and 105 ng/mL and 73.3 ng/mL and 6.36 ng/mL
- mean Ctrough at steady state ([2]; LDAC cohort, maintenance 200 mg daily): 196 ± 124 ng/mL
- bemcentinib concentration ([2]; Supplementary Figure 1b, individual patients, concentration paired with maximum pSTAT5 (Y694) inhibition): 358 ng/mL and 145 ng/mL and 276 ng/mL and 103 ng/mL and 124 ng/mL and 74 ng/mL and 118 ng/mL and 0 ng/mL and 81.5 ng/mL and 112 ng/mL and 270 ng/mL
- bemcentinib concentration ([2]; Supplementary Figure 1c, individual patients, concentration paired with maximum pERK1/2 (T202/Y204) inhibition): 358 ng/mL and 78.9 ng/mL and 276 ng/mL and 134 ng/mL and 130 ng/mL and 74.6 ng/mL and 118 ng/mL and 0 ng/mL and 98 ng/mL and 94 ng/mL and 73.4 ng/mL and 270 ng/mL
- bemcentinib concentration ([2]; Supplementary Figure 1d, individual patients, concentration paired with maximum pAKT (S473) inhibition): 408 ng/mL and 78.9 ng/mL and 276 ng/mL and 103 ng/mL and 130 ng/mL and 74 ng/mL and 225 ng/mL and 0 ng/mL and 81.5 ng/mL and 183 ng/mL and 73.4 ng/mL and 270 ng/mL
- Cmax ([2]; 100 mg, DE cohort, maintenance 100 mg daily, 10 patients): 140 ± 110 ng/mL
- AUC ([2]; 100 mg, DE cohort, maintenance 100 mg daily, read-out: AUC): 3310 ± 2630 ng·h/mL
- half-life ([2]; 200 mg daily, LDAC cohort, read-out: median t1/2 (converted)): 124 h
- Cmax ([2]; 200 mg, DE cohort, maintenance 200 mg daily, 21 patients): 162 ± 121 ng/mL
- AUC ([2]; 200 mg, DE cohort, maintenance 200 mg daily, read-out: AUC): 3810 ± 2860 ng·h/mL
- Cmax ([2]; 200 mg, LDAC cohort, maintenance 200 mg daily, 35 patients): 210 ± 128 ng/mL
- AUC ([2]; 200 mg, LDAC cohort, maintenance 200 mg daily, read-out: mean AUC): 4890 ± 3020 ng·h/mL
- Cmax ([2]; 300 mg, DE cohort, maintenance 300 mg daily, 5 patients): 398 ± 200 ng/mL
- AUC ([2]; 300 mg, DE cohort, maintenance 300 mg daily, read-out: AUC): 9390 ± 4720 ng·h/mL
- half-life ([2]; DE cohort, maintenance 100 mg daily, read-out: median half-life (t1/2) (converted)): 159 h
- half-life ([2]; DE cohort, maintenance 200 mg daily, read-out: median half-life (t1/2) (converted)): 124 h
- half-life ([2]; DE cohort, maintenance 300 mg daily, read-out: median half-life (t1/2) (converted)): 156 h
- Kd [3]: 460 nM
- IC50 [4]: > 1000 nM
- Effect when administered with cytarabine (Ara-C) ([5]; preliminary studies): at least additive
- Effect of exposure in AML cell lines ([5]; with G1 arrest, reduced phosphorylated axl and ERK): exposure-induced differentiation
- Reduction in tumor burden ([6]; oral treatment): dose-dependent
- Axl and ERK phosphorylation levels [6]: dose-dependent reduction
- Survival [7]: prolong
- Substrate and time-dependent inhibition of CYP3A4/5 activity [8]: modest
- Maximum QTcF recorded (severity) [9]: Grade I
- Ames bacterial mutation assay result [10]: negative
